{"source": "ChEMBL document CHEMBL5465560", "about": "“Selectivity Literature for EUbOPEN Chemogenomic Library” (2024)", "key": {"[1]": {"target": "Tyrosine-protein kinase CSK (Homo sapiens) (UniProt P41240)", "sequence (P41240 2-450 limits assumed)": "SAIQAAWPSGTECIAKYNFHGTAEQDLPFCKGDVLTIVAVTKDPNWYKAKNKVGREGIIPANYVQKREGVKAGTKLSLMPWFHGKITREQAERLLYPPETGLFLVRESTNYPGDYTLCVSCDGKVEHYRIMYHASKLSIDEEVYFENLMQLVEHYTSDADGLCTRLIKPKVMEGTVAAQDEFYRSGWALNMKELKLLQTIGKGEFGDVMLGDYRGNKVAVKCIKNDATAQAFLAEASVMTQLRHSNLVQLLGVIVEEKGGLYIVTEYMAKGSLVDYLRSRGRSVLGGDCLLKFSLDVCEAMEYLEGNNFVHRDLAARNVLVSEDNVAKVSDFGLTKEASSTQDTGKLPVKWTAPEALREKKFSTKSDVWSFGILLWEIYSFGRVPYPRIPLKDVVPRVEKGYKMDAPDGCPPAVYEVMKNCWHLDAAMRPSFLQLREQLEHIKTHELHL", "test": "Selectivity interaction (KinomeScan (DiscoverX)) EUB0001049a CSK", "details": "at 1 µM"}, "[2]": {"target": "5-hydroxytryptamine receptor 2B (Homo sapiens, UniProt P41595)", "sequence (P41595 whole entry)": "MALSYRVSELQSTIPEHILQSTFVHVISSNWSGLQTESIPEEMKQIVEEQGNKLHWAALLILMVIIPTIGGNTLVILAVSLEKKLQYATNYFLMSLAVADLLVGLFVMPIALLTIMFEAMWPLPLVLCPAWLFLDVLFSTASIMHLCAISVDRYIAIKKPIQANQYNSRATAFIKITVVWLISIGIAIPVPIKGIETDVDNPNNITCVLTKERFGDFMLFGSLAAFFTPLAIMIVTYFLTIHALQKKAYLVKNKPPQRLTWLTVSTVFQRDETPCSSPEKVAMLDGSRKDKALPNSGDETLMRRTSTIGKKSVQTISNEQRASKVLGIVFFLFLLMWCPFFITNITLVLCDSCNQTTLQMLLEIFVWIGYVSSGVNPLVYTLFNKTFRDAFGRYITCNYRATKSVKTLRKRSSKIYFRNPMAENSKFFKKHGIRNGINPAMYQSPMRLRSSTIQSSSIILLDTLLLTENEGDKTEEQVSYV", "test": "Selectivity interaction (GPCR panel (PDSP screen)) EUB0001079a HTR2B", "details": "at 10 µM"}, "[3]": {"target": "T1, Eukaryotic elongation factor 2 kinase (Homo sapiens) (UniProt O00418)", "T1 sequence (whole entry)": "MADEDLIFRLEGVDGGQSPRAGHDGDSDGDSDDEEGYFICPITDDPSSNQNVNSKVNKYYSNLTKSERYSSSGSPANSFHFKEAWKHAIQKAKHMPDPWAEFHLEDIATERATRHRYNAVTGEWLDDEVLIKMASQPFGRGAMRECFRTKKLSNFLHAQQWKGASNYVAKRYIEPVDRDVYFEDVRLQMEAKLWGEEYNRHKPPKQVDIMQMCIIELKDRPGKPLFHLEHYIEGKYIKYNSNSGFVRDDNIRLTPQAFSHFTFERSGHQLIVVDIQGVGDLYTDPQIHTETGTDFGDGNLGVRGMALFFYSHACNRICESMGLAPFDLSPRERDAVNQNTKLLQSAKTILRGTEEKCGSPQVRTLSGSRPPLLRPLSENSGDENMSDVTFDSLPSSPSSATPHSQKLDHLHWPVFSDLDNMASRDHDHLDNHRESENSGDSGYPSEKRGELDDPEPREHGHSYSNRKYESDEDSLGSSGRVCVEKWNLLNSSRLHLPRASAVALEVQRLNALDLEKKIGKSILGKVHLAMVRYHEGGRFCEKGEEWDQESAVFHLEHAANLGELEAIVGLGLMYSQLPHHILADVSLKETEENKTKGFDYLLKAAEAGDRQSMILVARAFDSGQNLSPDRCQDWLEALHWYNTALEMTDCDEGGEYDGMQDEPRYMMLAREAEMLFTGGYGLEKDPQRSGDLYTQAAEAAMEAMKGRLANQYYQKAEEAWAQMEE", "test": "Selectivity interaction (Kinase panel (KiNativ target engagement assay in Jurkat cells)) EUB0001635a EEF2K", "type": "cell-based", "details": "Selectivity number of off-targets 0.0, Selectivity number of targets 233.0, Source Knowledge https://www.sciencedirect.com/science/article/pii/S2451945619300674?via%3Dihub, at 1 µM"}, "[4]": {"target": "Non-receptor tyrosine-protein kinase TYK2 (Homo sapiens, UniProt P29597)", "sequence (P29597 whole entry)": "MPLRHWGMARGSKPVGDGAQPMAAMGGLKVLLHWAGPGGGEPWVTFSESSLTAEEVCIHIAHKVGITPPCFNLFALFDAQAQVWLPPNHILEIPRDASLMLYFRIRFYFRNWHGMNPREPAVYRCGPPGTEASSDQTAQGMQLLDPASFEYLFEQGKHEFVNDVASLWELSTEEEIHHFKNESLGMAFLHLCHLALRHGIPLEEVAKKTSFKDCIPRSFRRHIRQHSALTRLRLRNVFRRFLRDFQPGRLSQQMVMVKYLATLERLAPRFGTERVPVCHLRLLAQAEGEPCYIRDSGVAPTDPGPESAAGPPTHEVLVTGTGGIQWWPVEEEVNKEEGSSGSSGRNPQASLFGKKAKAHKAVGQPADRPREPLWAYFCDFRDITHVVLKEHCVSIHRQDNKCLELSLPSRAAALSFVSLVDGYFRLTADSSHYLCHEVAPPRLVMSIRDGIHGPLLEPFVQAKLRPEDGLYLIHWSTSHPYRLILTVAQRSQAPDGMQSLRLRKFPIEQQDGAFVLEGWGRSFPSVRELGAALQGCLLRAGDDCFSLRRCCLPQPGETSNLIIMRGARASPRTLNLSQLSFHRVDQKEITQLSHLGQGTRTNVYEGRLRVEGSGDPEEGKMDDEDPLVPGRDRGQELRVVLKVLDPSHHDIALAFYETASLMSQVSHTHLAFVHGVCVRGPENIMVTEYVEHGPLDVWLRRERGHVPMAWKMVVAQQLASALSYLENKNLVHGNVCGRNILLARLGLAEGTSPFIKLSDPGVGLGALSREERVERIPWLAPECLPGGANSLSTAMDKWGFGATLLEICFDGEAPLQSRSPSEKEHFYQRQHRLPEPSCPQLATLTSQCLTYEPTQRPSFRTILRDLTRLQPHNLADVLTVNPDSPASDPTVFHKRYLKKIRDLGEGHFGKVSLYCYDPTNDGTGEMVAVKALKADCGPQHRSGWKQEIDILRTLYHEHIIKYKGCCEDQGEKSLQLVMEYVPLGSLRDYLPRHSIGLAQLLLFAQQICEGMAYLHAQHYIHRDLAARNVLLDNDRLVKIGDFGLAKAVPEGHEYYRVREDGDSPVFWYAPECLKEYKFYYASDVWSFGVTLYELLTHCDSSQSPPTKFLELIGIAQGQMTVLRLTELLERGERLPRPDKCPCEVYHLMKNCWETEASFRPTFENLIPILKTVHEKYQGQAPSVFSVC", "test": "Selectivity interaction (Ambit KINOMEscan and KiNATiv profiling in Jurkat cells) EUB0000090b TYK2", "type": "cell-based", "details": "at 1 µM"}, "[5]": {"target": "Interferon-induced, double-stranded RNA-activated protein kinase (Homo sapiens) (UniProt P19525)", "sequence (P19525 whole entry)": "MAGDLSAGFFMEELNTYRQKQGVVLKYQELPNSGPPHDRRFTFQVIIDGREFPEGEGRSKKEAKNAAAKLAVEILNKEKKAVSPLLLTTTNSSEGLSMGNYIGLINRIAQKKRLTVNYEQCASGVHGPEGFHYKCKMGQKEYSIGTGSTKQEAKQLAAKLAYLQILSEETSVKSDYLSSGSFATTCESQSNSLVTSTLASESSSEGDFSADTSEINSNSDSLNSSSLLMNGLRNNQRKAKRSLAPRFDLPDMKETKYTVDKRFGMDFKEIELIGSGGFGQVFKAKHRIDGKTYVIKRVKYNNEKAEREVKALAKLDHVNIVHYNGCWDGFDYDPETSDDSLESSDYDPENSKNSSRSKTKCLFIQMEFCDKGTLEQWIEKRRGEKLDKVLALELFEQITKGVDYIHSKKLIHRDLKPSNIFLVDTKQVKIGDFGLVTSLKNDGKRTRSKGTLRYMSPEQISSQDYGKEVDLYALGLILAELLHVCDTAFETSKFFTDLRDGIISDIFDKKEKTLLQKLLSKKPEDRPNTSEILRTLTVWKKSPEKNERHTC", "details": "at 10 µM"}, "[6]": {"target": "5'-AMP-activated protein kinase catalytic subunit alpha-2 (Homo sapiens) (UniProt P54646)", "sequence (P54646 whole entry, looked up)": "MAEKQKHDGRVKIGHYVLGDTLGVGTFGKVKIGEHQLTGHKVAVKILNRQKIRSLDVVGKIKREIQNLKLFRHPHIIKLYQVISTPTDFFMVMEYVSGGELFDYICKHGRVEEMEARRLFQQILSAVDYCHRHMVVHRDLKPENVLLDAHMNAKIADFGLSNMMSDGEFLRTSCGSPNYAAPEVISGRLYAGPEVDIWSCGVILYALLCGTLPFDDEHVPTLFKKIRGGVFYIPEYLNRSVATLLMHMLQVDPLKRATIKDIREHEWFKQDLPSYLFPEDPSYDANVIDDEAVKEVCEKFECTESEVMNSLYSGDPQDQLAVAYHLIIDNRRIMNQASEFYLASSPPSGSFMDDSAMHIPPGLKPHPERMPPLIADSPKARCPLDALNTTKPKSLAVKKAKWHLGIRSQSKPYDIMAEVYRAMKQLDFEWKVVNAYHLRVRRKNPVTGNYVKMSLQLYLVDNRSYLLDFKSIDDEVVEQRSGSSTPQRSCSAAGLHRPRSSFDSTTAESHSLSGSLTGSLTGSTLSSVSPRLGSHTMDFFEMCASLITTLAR", "details": "at 10 µM"}, "[7]": {"target": "T2, Serine/threonine-protein kinase D1 (Homo sapiens) (UniProt Q15139)", "T2 sequence (whole entry)": "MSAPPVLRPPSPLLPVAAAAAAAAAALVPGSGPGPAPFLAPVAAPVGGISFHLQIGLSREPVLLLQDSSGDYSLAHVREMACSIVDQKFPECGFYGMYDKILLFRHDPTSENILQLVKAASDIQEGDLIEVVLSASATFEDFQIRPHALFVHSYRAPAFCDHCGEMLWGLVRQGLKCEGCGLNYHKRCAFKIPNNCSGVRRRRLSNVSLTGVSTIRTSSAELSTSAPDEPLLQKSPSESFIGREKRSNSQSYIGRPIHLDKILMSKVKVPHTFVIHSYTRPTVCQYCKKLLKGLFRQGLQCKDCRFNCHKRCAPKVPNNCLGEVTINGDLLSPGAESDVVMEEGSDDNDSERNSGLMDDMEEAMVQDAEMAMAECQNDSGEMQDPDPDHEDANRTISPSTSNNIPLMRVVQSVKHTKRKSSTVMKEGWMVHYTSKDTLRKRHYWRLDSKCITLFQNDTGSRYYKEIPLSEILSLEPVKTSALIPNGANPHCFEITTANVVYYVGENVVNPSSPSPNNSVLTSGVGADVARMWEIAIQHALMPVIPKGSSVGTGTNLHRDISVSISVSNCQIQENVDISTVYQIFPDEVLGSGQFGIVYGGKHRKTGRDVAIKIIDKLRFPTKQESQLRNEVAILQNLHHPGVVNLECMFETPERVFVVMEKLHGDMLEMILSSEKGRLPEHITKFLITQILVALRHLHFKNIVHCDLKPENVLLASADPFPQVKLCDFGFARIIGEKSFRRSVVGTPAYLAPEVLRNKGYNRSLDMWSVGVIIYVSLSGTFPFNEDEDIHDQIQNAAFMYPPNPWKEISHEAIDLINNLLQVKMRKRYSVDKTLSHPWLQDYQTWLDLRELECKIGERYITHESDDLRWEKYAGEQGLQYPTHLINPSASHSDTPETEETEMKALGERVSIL", "details": "at 10 µM"}, "[8]": {"target": "STE20-like serine/threonine-protein kinase (Homo sapiens, UniProt Q9H2G2)", "sequence (Q9H2G2 whole entry, looked up)": "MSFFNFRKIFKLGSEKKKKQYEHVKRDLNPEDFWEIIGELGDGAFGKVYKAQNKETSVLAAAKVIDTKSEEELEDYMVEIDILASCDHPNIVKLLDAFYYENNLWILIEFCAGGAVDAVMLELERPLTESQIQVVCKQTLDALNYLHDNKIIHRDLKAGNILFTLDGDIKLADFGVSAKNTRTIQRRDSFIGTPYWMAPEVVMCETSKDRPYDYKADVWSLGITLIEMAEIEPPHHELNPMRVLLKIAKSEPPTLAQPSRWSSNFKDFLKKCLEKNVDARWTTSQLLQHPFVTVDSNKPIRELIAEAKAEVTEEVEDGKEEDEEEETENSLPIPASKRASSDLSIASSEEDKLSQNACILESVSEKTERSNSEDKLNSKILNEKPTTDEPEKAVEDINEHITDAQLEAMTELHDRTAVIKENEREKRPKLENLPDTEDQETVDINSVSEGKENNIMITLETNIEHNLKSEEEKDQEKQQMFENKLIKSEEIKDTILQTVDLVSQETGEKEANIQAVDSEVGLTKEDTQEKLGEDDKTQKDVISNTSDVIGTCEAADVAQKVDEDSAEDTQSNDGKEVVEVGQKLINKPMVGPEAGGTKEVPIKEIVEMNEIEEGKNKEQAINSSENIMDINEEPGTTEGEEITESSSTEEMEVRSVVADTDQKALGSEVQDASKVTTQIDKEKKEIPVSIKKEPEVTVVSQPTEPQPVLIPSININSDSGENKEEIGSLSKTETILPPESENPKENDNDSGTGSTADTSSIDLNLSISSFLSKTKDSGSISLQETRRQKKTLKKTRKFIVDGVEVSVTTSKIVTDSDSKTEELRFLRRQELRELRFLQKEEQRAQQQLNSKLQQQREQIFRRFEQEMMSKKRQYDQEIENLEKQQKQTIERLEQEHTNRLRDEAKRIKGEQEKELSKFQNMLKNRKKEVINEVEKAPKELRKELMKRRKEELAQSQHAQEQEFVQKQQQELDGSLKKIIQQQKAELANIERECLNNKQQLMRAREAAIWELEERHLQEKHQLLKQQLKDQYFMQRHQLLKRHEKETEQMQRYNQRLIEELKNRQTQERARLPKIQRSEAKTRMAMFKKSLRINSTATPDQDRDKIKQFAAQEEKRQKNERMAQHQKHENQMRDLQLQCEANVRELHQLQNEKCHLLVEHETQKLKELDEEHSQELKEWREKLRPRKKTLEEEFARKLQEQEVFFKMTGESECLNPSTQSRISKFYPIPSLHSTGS", "test": "Selectivity interaction (KinomeScan (DiscoverX)) EUB0000695a SLK", "details": "at 100 nM"}, "[9]": {"target": "T3, Inhibitor of nuclear factor kappa-B kinase subunit epsilon (Homo sapiens) (UniProt Q14164)", "T3 sequence (whole entry)": "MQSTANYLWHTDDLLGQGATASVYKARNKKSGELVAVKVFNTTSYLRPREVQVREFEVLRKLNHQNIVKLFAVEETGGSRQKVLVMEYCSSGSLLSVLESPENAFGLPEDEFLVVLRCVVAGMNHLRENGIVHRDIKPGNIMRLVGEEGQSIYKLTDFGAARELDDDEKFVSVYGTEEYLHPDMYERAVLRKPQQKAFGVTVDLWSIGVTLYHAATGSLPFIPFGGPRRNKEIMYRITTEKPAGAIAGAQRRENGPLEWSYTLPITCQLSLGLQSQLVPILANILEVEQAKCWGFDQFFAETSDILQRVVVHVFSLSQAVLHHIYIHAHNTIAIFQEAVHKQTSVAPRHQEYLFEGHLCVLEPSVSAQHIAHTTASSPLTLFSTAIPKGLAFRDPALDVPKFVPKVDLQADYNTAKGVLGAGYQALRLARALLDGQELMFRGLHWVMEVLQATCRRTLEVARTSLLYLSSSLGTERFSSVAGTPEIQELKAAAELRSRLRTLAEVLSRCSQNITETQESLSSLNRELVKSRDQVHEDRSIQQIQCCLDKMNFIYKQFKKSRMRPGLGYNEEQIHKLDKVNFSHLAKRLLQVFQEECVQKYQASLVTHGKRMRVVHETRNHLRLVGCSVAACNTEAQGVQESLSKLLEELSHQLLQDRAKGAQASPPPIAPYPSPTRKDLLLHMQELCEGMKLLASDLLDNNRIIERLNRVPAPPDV", "test": "Selectivity interaction (ProQinase) EUB0000171b IKBKE"}, "[10]": {"target": "Serine/threonine-protein kinase 24 (Homo sapiens) (UniProt Q9Y6E0)", "sequence (Q9Y6E0 whole entry, looked up)": "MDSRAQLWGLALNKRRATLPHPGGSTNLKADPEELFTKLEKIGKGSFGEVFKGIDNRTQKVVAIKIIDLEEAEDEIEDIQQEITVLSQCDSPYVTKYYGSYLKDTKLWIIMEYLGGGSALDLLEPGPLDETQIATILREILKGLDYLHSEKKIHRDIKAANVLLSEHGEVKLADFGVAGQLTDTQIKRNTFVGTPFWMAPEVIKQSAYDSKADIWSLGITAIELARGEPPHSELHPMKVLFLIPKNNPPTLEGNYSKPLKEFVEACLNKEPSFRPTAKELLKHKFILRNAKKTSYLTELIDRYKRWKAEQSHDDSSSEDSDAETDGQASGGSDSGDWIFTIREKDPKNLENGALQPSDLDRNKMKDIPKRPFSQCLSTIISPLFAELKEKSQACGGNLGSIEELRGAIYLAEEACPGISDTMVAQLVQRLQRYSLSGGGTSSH", "test": "Selectivity interaction (ProQinase) EUB0000171b STK24"}}}
{"smiles": "COc1cc(Nc2nc(C)cc(-c3cnn4nc(OC)ccc34)n2)cc(C(F)(F)F)c1", "values": [{"measurement": "% of control", "setting": "[1]", "result": 59, "unit": "%"}]}
{"smiles": "Nc1cnc(N2CCc3cc(S(=O)(=O)Nc4c(F)cc(Cl)cc4F)cc(N4CCCC4=O)c32)nc1", "note": "[TP-020n]", "values": [{"measurement": "% of inhibition", "setting": "[2]", "result": 12.9, "unit": "%"}]}
{"smiles": "C=CC(=O)Nc1ccc(C(=O)Nc2[nH]nc3c2CN(C(=O)N[C@H](CN(C)C)c2ccccc2)C3(C)C)cc1", "values": [{"measurement": "% of engagement", "setting": "[3]", "result": -14.2, "unit": "%"}]}
{"smiles": "CN(C)C/C=C/C(=O)Nc1ccc(C(=O)N2CCCC(Nc3ncc(Cl)c(-c4c[nH]c5ccccc45)n3)C2)cc1", "note": "(configuration not stated)", "values": [{"measurement": "% of control", "setting": "[4]", "result": 94, "unit": "%"}]}
{"smiles": "Cc1cc([C@@H](C)Nc2ccccc2C(=O)O)c2nc(N3CCOCC3)cc(=O)n2c1", "note": "[AZD-6482]", "values": [{"measurement": "% of control", "setting": "[5]", "result": 99, "unit": "%"}, {"measurement": "% of control", "setting": "[6]", "result": 88, "unit": "%"}, {"measurement": "% of control", "setting": "[7]", "result": 89, "unit": "%"}]}
{"smiles": "Cc1cc(F)c(C(=O)Nc2cccc(-c3nncn3C(C)C)n2)cc1-n1cnc(C2CC2)c1", "values": [{"measurement": "% of control", "setting": "[8]", "result": 77, "unit": "%"}]}
{"smiles": "C=CC(=O)Nc1cccc(C(=O)Nc2ccc(Nc3cc(-c4[nH]c(SC)nc4C)ccn3)cc2)c1", "values": [{"measurement": "% of control", "setting": "[9]; at 1 µM", "result": 88, "unit": "%"}, {"measurement": "% of control", "setting": "[9]; at 5 µM", "result": 70, "unit": "%"}, {"measurement": "% of control", "setting": "[10]; at 1 µM", "result": 85, "unit": "%"}, {"measurement": "% of control", "setting": "[10]; at 5 µM", "result": 89, "unit": "%"}]}
